For data set [1], the system named is Mur pathway (MurA-MurF) enzymes from Mtb. In words: one-pot assay reconstructing the Mur pathway (Pi release), inhibitor studies. In kind it is biochemical, Mycobacterium tuberculosis. As to conditions: for Percentage inhibition, one-pot assay: at 100 μM concentration of compound; for IC50: six compound concentrations 5-100 μM, 15 min pre-incubation, 30 min at 37 °C, 5% DMSO control.

For data set [2], the target named is MurE (Mycobacterium tuberculosis, UniProt P9WJL3). In words: inhibition of individual Mur enzyme: MurE. The data set is classed as biochemical.
Sequence of MurE (P9WJL3 whole entry): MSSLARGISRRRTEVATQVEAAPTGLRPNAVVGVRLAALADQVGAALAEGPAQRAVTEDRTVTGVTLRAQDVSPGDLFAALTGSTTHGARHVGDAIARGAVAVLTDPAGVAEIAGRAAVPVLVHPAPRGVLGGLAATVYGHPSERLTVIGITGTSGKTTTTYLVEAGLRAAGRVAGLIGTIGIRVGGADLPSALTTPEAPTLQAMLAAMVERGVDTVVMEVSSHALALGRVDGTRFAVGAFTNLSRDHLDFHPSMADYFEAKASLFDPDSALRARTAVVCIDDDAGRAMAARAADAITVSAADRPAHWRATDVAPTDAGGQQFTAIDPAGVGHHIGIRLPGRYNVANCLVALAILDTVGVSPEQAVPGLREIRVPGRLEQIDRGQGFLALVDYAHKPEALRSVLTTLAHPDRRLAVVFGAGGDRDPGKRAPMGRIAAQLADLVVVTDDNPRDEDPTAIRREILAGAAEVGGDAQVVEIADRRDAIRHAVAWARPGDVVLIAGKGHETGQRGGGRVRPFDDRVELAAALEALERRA
For data set [3], the target named is MurD (Mycobacterium tuberculosis, UniProt P9WJL5). In words: inhibition of individual Mur enzyme: MurD. The data set is classed as biochemical. As to conditions: for remaining activity at 100 µM: at 100 μM compound, vs 'no drug' control (5% DMSO), read-out: RA (residual activity), MurD. The procedure:
(§1) Each Mur ligase reaction was performed at 37 °C with an incubation period of 1 h. To measure the activity of MurC, the completed MurB reaction was supplemented with 1 mM L-Alanine, 10 mM MgCl2 and 1 mM ATP. MurD-F ligase activities were performed sequentially, supplementing the prior reaction with 1 mM each of the required substrate (D-Glutamate, meso-Diaminopimelic acid and D -Alanine-D-Alanine, respectively). The control reaction contained all the components except the enzyme that was being tested (e.g. the control reaction for MurC assay contained all the components except MurC). For MurD and MurF reaction, purified MBP at 1 μg concentration was added to the reaction mixture instead of the enzymes. Estimation of net Pi was done as previously described in the MurA assay.
(§2) Tested compounds at various concentrations (5–100 μM) were pre-incubated with enzymes for 15 mins, followed by the addition of remaining constituents of the assay. The final reaction mixture was incubated for 30 mins at 37 °C. To assess specific inhibition of Mur ligases, each of the ligase was pre-incubated with inhibitors separately and then added to the one-pot reaction mixture. The net Pi released was calculated as described earlier. In the ‘no drug’ control reaction, the organic solvent (DMSO) used in dissolving inhibitory compounds was added at 5% concentration to the one-pot assay, while Isoniazid, a standard anti-TB drug with no known effect on Mur activity, was inculded as another control to ascertain the specificity of the tested inhibitors in the study.

For data set [4], the target named is MurA (Mycobacterium tuberculosis, UniProt P9WJM1). In words: inhibition of individual Mur enzyme: MurA. The data set is classed as biochemical. Particulars: for remaining activity at 100 µM: at 100 μM compound, vs 'no drug' control (5% DMSO), read-out: RA (residual activity), MurA. The procedure: The reaction was performed in a micro-titer plate at 37 °C for 30 minutes and terminated by the addition of Pi Colorlock™ Assay reagent. Absorbance was measured at 630 nm and the amount of Pi released was calculated from the standard phosphate curve. […] The control reactions contained all the components except MurA. The net Pi was calculated by subtracting total Pi in the control reaction from the total Pi after the completion of the assay. To get a large assay window and to avoid saturation of Pi, optimization of assays were carried out at substrate concentrations so as not to exceed the assay signal beyond 2.0 absorbance units as recommended by the manufacturer of PiColorlock™ Assay kit.
Sequence of MurA (P9WJM1 whole entry): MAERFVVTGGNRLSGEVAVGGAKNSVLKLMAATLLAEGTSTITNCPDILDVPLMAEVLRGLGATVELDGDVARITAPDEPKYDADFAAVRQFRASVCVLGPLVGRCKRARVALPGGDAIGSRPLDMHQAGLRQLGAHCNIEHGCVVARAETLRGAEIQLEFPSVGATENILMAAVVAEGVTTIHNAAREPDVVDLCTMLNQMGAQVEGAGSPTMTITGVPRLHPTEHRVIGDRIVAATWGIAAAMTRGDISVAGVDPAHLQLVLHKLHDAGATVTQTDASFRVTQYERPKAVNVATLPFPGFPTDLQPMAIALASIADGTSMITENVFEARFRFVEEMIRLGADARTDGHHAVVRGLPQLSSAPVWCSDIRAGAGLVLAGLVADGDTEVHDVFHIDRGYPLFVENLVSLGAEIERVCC
as §2

The target of data set [5] is MurC (Mycobacterium tuberculosis, UniProt P9WJL7). The data set can be described thus: inhibition of individual Mur enzyme: MurC. The data set is classed as biochemical. As to conditions: for remaining activity at 100 µM: at 100 μM compound, vs 'no drug' control (5% DMSO), read-out: RA (residual activity), MurC. The procedure:
as §1, §2

Data set [6] concerns the target MurF (Mycobacterium tuberculosis, UniProt P9WJL1). In words: inhibition of individual Mur enzyme: MurF. In kind it is biochemical. On the procedure: as §1, §2
Data set [7] concerns MurE from E.coli. On the set-up: method as in PMID 25851408. As to conditions: range stated jointly for MurE and MurF; cited from earlier work.
Data set [8] deals with MurB (Mycobacterium tuberculosis, UniProt P9WJL9). In words: inhibition of individual Mur enzyme: MurB. As to conditions: for remaining activity at 100 µM: at 100 μM compound, vs 'no drug' control (5% DMSO), read-out: RA (residual activity), MurB. In kind it is biochemical. On the procedure: To assay MurB activity, the MurA reaction after 30 mins of incubation was supplemented with 10 mM KCl, 0.2 mM NADPH and 60 nM of MurB enzyme in a total volume of 100 μl. The absorbance at 340 nm was monitored over 5 min to calculate the rate of NADPH oxidation. The control reaction contained all the components except MurB.
Sequence of MurB (P9WJL9 whole entry): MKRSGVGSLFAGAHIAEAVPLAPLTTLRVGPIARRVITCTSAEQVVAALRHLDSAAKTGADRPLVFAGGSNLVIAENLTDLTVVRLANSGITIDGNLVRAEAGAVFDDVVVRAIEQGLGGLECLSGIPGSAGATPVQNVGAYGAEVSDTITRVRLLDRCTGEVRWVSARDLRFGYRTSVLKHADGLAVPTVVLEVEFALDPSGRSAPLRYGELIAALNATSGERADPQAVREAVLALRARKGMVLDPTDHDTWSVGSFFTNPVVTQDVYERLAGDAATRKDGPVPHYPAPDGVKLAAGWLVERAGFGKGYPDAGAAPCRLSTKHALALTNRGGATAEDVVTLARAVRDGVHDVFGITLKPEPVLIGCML
as §2

For data set [9], the system named is Mur pathway (MurA-MurF) enzymes from Mtb. The data set can be described thus: ESI-MS analysis of one-pot assay with inhibitor. As to conditions: Fig. S5. In kind it is biochemical, Mycobacterium tuberculosis.
The subject of data set [10] is C=C(OP(=O)(O)O)C(=O)O. The data set can be described thus: purified protein, by the assay type. As to conditions: pH 7.0; 37.0 °C.

Where two headings read alike, the source gives them in different places. A value given as a limit tells only on which side of the number the result lay.

Sequence of MurD (P9WJL5 whole entry): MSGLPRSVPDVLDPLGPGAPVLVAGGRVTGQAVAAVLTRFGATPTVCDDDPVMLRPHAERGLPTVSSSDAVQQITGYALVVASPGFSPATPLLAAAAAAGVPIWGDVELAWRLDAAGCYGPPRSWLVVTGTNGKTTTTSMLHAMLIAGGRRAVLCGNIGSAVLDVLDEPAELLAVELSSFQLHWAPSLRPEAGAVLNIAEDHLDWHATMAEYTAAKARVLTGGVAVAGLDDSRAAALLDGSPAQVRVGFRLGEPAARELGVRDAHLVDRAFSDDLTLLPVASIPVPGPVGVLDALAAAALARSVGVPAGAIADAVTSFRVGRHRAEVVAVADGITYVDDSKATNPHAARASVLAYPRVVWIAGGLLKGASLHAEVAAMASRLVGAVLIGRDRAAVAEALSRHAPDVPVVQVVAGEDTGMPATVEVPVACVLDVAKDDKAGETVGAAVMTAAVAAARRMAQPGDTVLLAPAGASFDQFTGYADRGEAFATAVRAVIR
Sequence of MurC (P9WJL7 whole entry): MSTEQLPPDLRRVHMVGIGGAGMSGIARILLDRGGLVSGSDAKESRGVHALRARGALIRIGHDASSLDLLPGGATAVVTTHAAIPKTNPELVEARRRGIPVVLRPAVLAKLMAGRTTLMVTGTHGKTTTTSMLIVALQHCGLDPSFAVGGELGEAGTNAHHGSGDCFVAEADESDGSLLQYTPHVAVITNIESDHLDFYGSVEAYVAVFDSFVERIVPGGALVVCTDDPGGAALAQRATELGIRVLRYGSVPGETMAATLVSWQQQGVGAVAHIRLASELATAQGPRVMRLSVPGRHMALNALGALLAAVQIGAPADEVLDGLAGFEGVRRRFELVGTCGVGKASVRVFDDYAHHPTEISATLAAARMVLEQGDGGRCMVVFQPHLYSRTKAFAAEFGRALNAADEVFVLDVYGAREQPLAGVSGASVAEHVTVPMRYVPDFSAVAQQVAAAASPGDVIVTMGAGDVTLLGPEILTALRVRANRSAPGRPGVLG
Sequence of MurF (P9WJL1 whole entry): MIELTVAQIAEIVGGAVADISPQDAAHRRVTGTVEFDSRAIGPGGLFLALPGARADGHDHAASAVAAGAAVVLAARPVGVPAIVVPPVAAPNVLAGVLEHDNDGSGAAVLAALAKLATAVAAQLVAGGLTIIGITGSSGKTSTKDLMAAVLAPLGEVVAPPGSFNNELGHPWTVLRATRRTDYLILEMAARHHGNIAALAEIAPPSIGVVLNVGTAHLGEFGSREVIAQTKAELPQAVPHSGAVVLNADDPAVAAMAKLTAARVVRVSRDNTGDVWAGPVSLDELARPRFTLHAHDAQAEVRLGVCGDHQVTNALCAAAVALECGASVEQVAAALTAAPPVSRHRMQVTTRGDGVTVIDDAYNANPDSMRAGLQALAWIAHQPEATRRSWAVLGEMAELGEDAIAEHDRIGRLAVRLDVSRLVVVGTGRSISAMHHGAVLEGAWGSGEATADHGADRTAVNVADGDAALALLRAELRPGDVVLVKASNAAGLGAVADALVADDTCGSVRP

Turning to `O=C(O)c1cc(-c2ccc(/C=C3/SC(=S)N(c4ccc([N+](=O)[O-])cc4)C3=O)o2)ccc1Cl` [Compound 3], the “Percentage inhibition, one-pot assay” value in [1] was determined as 97%. Further, the IC50 – broadly, the midpoint of a concentration-inhibition curve – in data set [1] was 19.6 µM; in [2], 61.6 µM; in data set [6], 45.4 µM; in data set [7], 11 to 16 µM. In addition, in [3], the “inhibition of MurD (in words)” value was “marginal inhibition”. Besides, the remaining activity at 100 µM in [3] is 88%; in data set [4], 75%; in data set [5], 66%; in [8], over 100%. Also, the “inhibition of MurA (in words)” value in [4] was “marginal inhibition”. In addition, in data set [5], the “inhibition of MurC (in words)” value is reported as “marginal inhibition”. The “inhibition of MurB (in words)” value in data set [8] is listed as “no inhibition”.
Consider `O=C(O)c1cc(-c2ccc(/C=C3/SC(=S)N(c4cccc([N+](=O)[O-])c4)C3=O)o2)ccc1Cl` [Compound 4], for which the “Percentage inhibition, one-pot assay” value in [1] is given as 93%. In addition, the IC50 in data set [1] is 8.25 µM; in [2], 17 µM; in [6], 25.8 µM; in [7], 11 to 16 µM. The “inhibition of MurD (in words)” value in data set [3] is on record as “marginal inhibition”. Moreover, the remaining activity at 100 µM in [3] is 85%; in data set [4], over 100%; in [5], 73%; in [8], over 100%. For the same compound, in data set [4], the “inhibition of MurA (in words)” value is “did not inhibit”. For the same compound, in data set [5], the “inhibition of MurC (in words)” value was “marginal inhibition”. Further, the “inhibition of MurB (in words)” value in data set [8] was “did not inhibit”.
In the case of `N[C@@H]1CON=C1O` [D-Cycloserine, reference compound], the IC50 amounted to 74 µM in data set [1]; 97 µM in data set [2] (six compound concentrations 5-100 μM, read-out: IC50, MurE); 67.1 µM in data set [6]. Further, the “final product (UDP-MurNAc pentapeptide) formation in one-pot assay by ESI-MS” value in [9] is listed as “inhibition of final product formation”. The remaining activity at 100 µM in data set [3] is 72%; in data set [4] it was over 100%; in data set [5] it was 64%; in [8], over 100%.
Turning to “Mtb MurA (Mycobacterium tuberculosis H37Rv)”, in data set [10], the Km (as a rule, the concentration of substrate that gives half-maximal velocity) came out at 527.8 µM and the Vmax (commonly the rate approached at saturating substrate) is 0.173 µM/min.

Source of the values: paper PMC5062083, “Development of a one-pot assay for screening and identification of Mur pathway inhibitors in Mycobacterium tuberculosis” (Scientific Reports, 2016).
